Assays:
Assay in all cases: B2 Post-Emergence Efficacy - Test 2
Assay type in all cases: in vivo
Avena fatua (AVEFA) = details: 15 days after application, 0-100 scale
Method in brief: (§1)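 Sow in standard soil; grow 12 d under controlled conditions, 65% humidity, 16 h light, 24/18 °C or 20/16 °C. Spray with water-diluted IF50 formulation, 0.2% v/v Genapol X080. Water twice daily. Assess injury at 15 d (0–100).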

Bidens pilosa (BIDPI) = details: 15 days after application, 0-100 scale
Method in brief: as §1

[1] = tested on: Brachiaria plantaginea (BRAPL); details: 15 days after application, 0=no damage, 100=total kill
Method in brief: as §1

Brassica napus (BRSNN) = details: 15 days after application, 0-100 scale
Method in brief: as §1

[2] = tested on: Chenopodium album (CHEAL); details: 15 days after application, 0-100 scale
Method in brief: as §1

[3] = tested on: Digitaria sanguinalis (DIGSA); details: 15 days after application, 0=no damage, 100=total kill
Method in brief: as §1

[4] = tested on: Euphorbia hetrophylla (EPHHL); details: 15 days after application, 0-100 scale
Method in brief: as §1

Galium aparine (GALAP) = details: 15 days after application, 0-100 scale
Method in brief: as §1

[5] = tested on: Ipomoea hederacea (IPOHE); details: 15 days after application, 0-100 scale
Method in brief: as §1

Kochia scoparia (KSHSC) = details: 15 days after application, 0-100 scale
Method in brief: as §1

Orysa sativa (ORYSA) = details: 15 days after application; for Herbicidal activity ORYSA: 0-100 scale; for Herbicidal activity on a 0-100 scale, ORYSA: 0=no damage, 100=total kill
Method in brief: as §1

[6] = tested on: Panicum miliaceum (PANMI); details: 15 days after application, 0=no damage, 100=total kill
Method in brief: as §1

Poa annua (POAAN) = details: 15 days after application, 0-100 scale
Method in brief: as §1

Sinapis arvensis (SINAR) = details: 15 days after application, 0-100 scale
Method in brief: as §1

Sorghum bicolour (SORVU) = details: 15 days after application, 0=no damage, 100=total kill
Method in brief: as §1

Stellaria media (STEME) = details: 15 days after application, 0-100 scale
Method in brief: as §1

[7] = tested on: Triticum aestivum (TRZAW); details: 15 days after application, 0-100 scale
Method in brief: as §1

[8] = tested on: Xanthium strumarium (XANST); details: 15 days after application, 0-100 scale
Method in brief: as §1

## Cc1nn(C)c(=O)c(-c2c(F)ccc(Cl)c2CCc2ccc(C(F)(F)F)nc2)c1O [Compound 1.042, 4-[3-chloro-6-fluoro-2-[2-[6-(trifluoromethyl)-3-pyridyl]ethyl]phenyl]-5-hydroxy-2,6-dimethyl-pyridazin-3-one]
Avena fatua (AVEFA); 15 g/Ha
  Herbicidal activity AVEFA: 30
Avena fatua (AVEFA); 30 g/Ha
  Herbicidal activity AVEFA: 60
Avena fatua (AVEFA); 60 g/Ha
  Herbicidal activity AVEFA: 80
Avena fatua (AVEFA); 125 g/Ha
  Herbicidal activity AVEFA: 80
Avena fatua (AVEFA); 250 g/Ha
  Herbicidal activity AVEFA: 90
Avena fatua (AVEFA); 500 g/Ha
  Herbicidal activity AVEFA: 90
Bidens pilosa (BIDPI); 15 g/Ha
  Herbicidal activity BIDPI: 70
Bidens pilosa (BIDPI); 30 g/Ha
  Herbicidal activity BIDPI: 70
Bidens pilosa (BIDPI); 60 g/Ha
  Herbicidal activity BIDPI: 70
Bidens pilosa (BIDPI); 125 g/Ha
  Herbicidal activity BIDPI: 70
Bidens pilosa (BIDPI); 250 g/Ha
  Herbicidal activity BIDPI: 80
Bidens pilosa (BIDPI); 500 g/Ha
  Herbicidal activity BIDPI: 90
[1]; 15 g/Ha
  Herbicidal activity on a 0-100 scale, BRAPL: 80
[1]; 30 g/Ha
  Herbicidal activity on a 0-100 scale, BRAPL: 80
[1]; 60 g/Ha
  Herbicidal activity on a 0-100 scale, BRAPL: 90
[1]; 125 g/Ha
  Herbicidal activity on a 0-100 scale, BRAPL: 90
[1]; 250 g/Ha
  Herbicidal activity on a 0-100 scale, BRAPL: 90
[1]; 500 g/Ha
  Herbicidal activity on a 0-100 scale, BRAPL: 90
Brassica napus (BRSNN); 15 g/Ha
  Herbicidal activity BRSNN: 90
Brassica napus (BRSNN); 30 g/Ha
  Herbicidal activity BRSNN: 90
Brassica napus (BRSNN); 60 g/Ha
  Herbicidal activity BRSNN: 90
Brassica napus (BRSNN); 125 g/Ha
  Herbicidal activity BRSNN: 90
Brassica napus (BRSNN); 250 g/Ha
  Herbicidal activity BRSNN: 90
Brassica napus (BRSNN); 500 g/Ha
  Herbicidal activity BRSNN: 90
[2]; 30 g/Ha
  Herbicidal activity CHEAL: 90
[2]; 60 g/Ha
  Herbicidal activity CHEAL: 90
[2]; 125 g/Ha
  Herbicidal activity CHEAL: 90
[2]; 250 g/Ha
  Herbicidal activity CHEAL: 100
[2]; 500 g/Ha
  Herbicidal activity CHEAL: 100
[3]; 15 g/Ha
  Herbicidal activity on a 0-100 scale, DIGSA: 0
[3]; 30 g/Ha
  Herbicidal activity on a 0-100 scale, DIGSA: 60
[3]; 60 g/Ha
  Herbicidal activity on a 0-100 scale, DIGSA: 70
[3]; 125 g/Ha
  Herbicidal activity on a 0-100 scale, DIGSA: 70
[3]; 250 g/Ha
  Herbicidal activity on a 0-100 scale, DIGSA: 80
[3]; 500 g/Ha
  Herbicidal activity on a 0-100 scale, DIGSA: 90
[4]; 15 g/Ha
  Herbicidal activity EPHHL: 80
[4]; 30 g/Ha
  Herbicidal activity EPHHL: 90
[4]; 60 g/Ha
  Herbicidal activity EPHHL: 90
[4]; 125 g/Ha
  Herbicidal activity EPHHL: 100
[4]; 250 g/Ha
  Herbicidal activity EPHHL: 100
[4]; 500 g/Ha
  Herbicidal activity EPHHL: 100
Galium aparine (GALAP); 15 g/Ha
  Herbicidal activity GALAP: 10
Galium aparine (GALAP); 30 g/Ha
  Herbicidal activity GALAP: 30
Galium aparine (GALAP); 60 g/Ha
  Herbicidal activity GALAP: 60
Galium aparine (GALAP); 125 g/Ha
  Herbicidal activity GALAP: 80
Galium aparine (GALAP); 250 g/Ha
  Herbicidal activity GALAP: 80
Galium aparine (GALAP); 500 g/Ha
  Herbicidal activity GALAP: 90
[5]; 15 g/Ha
  Herbicidal activity IPOHE: 100
[5]; 30 g/Ha
  Herbicidal activity IPOHE: 100
[5]; 60 g/Ha
  Herbicidal activity IPOHE: 100
[5]; 125 g/Ha
  Herbicidal activity IPOHE: 100
[5]; 250 g/Ha
  Herbicidal activity IPOHE: 100
[5]; 500 g/Ha
  Herbicidal activity IPOHE: 100
Kochia scoparia (KSHSC); 15 g/Ha
  Herbicidal activity KCHSC: 0
Kochia scoparia (KSHSC); 30 g/Ha
  Herbicidal activity KCHSC: 10
Kochia scoparia (KSHSC); 60 g/Ha
  Herbicidal activity KCHSC: 10
Kochia scoparia (KSHSC); 125 g/Ha
  Herbicidal activity KCHSC: 20
Kochia scoparia (KSHSC); 250 g/Ha
  Herbicidal activity KCHSC: 30
Kochia scoparia (KSHSC); 500 g/Ha
  Herbicidal activity KCHSC: 60
Orysa sativa (ORYSA); 15 g/Ha
  Herbicidal activity ORYSA: 0
  Herbicidal activity on a 0-100 scale, ORYSA: 0
Orysa sativa (ORYSA); 30 g/Ha
  Herbicidal activity ORYSA: 0
  Herbicidal activity on a 0-100 scale, ORYSA: 0
Orysa sativa (ORYSA); 60 g/Ha
  Herbicidal activity ORYSA: 0
  Herbicidal activity on a 0-100 scale, ORYSA: 0
Orysa sativa (ORYSA); 125 g/Ha
  Herbicidal activity ORYSA: 0
  Herbicidal activity on a 0-100 scale, ORYSA: 0
Orysa sativa (ORYSA); 250 g/Ha
  Herbicidal activity ORYSA: 20
  Herbicidal activity on a 0-100 scale, ORYSA: 20
Orysa sativa (ORYSA); 500 g/Ha
  Herbicidal activity ORYSA: 50
  Herbicidal activity on a 0-100 scale, ORYSA: 50
[6]; 15 g/Ha
  Herbicidal activity on a 0-100 scale, PANMI: 10
[6]; 30 g/Ha
  Herbicidal activity on a 0-100 scale, PANMI: 60
[6]; 60 g/Ha
  Herbicidal activity on a 0-100 scale, PANMI: 80
[6]; 125 g/Ha
  Herbicidal activity on a 0-100 scale, PANMI: 90
[6]; 250 g/Ha
  Herbicidal activity on a 0-100 scale, PANMI: 100
[6]; 500 g/Ha
  Herbicidal activity on a 0-100 scale, PANMI: 100
Poa annua (POAAN); 15 g/Ha
  Herbicidal activity POAAN: 20
Poa annua (POAAN); 30 g/Ha
  Herbicidal activity POAAN: 70
Poa annua (POAAN); 60 g/Ha
  Herbicidal activity POAAN: 80
Poa annua (POAAN); 125 g/Ha
  Herbicidal activity POAAN: 90
Poa annua (POAAN); 250 g/Ha
  Herbicidal activity POAAN: 90
Poa annua (POAAN); 500 g/Ha
  Herbicidal activity POAAN: 90
Sinapis arvensis (SINAR); 15 g/Ha
  Herbicidal activity SINAR: 80
Sinapis arvensis (SINAR); 30 g/Ha
  Herbicidal activity SINAR: 90
Sinapis arvensis (SINAR); 60 g/Ha
  Herbicidal activity SINAR: 90
Sinapis arvensis (SINAR); 125 g/Ha
  Herbicidal activity SINAR: 90
Sinapis arvensis (SINAR); 250 g/Ha
  Herbicidal activity SINAR: 90
Sinapis arvensis (SINAR); 500 g/Ha
  Herbicidal activity SINAR: 90
Sorghum bicolour (SORVU); 15 g/Ha
  Herbicidal activity on a 0-100 scale, SORVU: 0
Sorghum bicolour (SORVU); 30 g/Ha
  Herbicidal activity on a 0-100 scale, SORVU: 70
Sorghum bicolour (SORVU); 60 g/Ha
  Herbicidal activity on a 0-100 scale, SORVU: 80
Sorghum bicolour (SORVU); 125 g/Ha
  Herbicidal activity on a 0-100 scale, SORVU: 90
Sorghum bicolour (SORVU); 250 g/Ha
  Herbicidal activity on a 0-100 scale, SORVU: 90
Sorghum bicolour (SORVU); 500 g/Ha
  Herbicidal activity on a 0-100 scale, SORVU: 100
Stellaria media (STEME); 15 g/Ha
  Herbicidal activity STEME: 100
Stellaria media (STEME); 30 g/Ha
  Herbicidal activity STEME: 100
Stellaria media (STEME); 60 g/Ha
  Herbicidal activity STEME: 90
Stellaria media (STEME); 125 g/Ha
  Herbicidal activity STEME: 100
Stellaria media (STEME); 250 g/Ha
  Herbicidal activity STEME: 100
Stellaria media (STEME); 500 g/Ha
  Herbicidal activity STEME: 100
[7]; 15 g/Ha
  Herbicidal activity TRZAW: 20
[7]; 30 g/Ha
  Herbicidal activity TRZAW: 30
[7]; 60 g/Ha
  Herbicidal activity TRZAW: 60
[7]; 125 g/Ha
  Herbicidal activity TRZAW: 70
[7]; 250 g/Ha
  Herbicidal activity TRZAW: 80
[7]; 500 g/Ha
  Herbicidal activity TRZAW: 80
[8]; 15 g/Ha
  Herbicidal activity XANST: 80
[8]; 125 g/Ha
  Herbicidal activity XANST: 90
[8]; 250 g/Ha
  Herbicidal activity XANST: 100
[8]; 500 g/Ha
  Herbicidal activity XANST: 100

Reference: patent US20230301300A1, “HERBICIDAL COMPOSITIONS” (SYNGENTA CROP PROTECTION AG, priority 2020, published 2023)
